Read-outs that look alike come from different tables or passages of the source.

The record followed here is publication PMC12557365 (Journal of Medicinal Chemistry, 2025).

In one assay the target is SARS-CoV-2 3CL^pro (Severe acute respiratory syndrome coronavirus 2, UniProt P0DTD1). The assay is described as follows: biochemical. In kind it is biochemical.
A further assay relates to SARS-CoV-2 variants. The assay is described as follows: microbe, parasite or virus in culture. In kind it is cell-based.
Assay [1] deals with SARS-CoV-2 Omicron strains. The assay is described as follows: microbe, parasite or virus in culture. It counts as cell-based. The settings on record: Severe acute respiratory syndrome coronavirus 2, Epithelial cell, read-out: EC90 against the Omicron variants in hAECs.
Assay [2] concerns rgSARS-CoV-2 with 3CL^pro mutations. It counts as cell-based, SARS-CoV-2.

In the case of `Cc1cncc(-n2c(=O)c(Cc3cc(F)c(F)c(F)c3)c(N3CCCC3)n(CC#N)c2=O)c1` [Compound 5, 2-(3-(5-Methylpyridin-3-yl)-2,4-dioxo-6-(pyrrolidin-1-yl)-5-(3,4,5-trifluorobenzyl)-3,4-dihydropyrimidin-1(2H)-yl)-acetonitrile], the “decrease in activity versus compound 4” value at SARS-CoV-2 3CL^pro was > 10 -fold.
What is called EC50 is the midpoint of the concentration-response curve. One may read the EC90 as the point of the concentration-response curve where the effect stands at 90%. Consider `N#CCn1c(N2CC3(C2)CC(F)(F)C3)c(-c2ccc(F)c(Cl)c2)c(=O)n(-c2cncc(Cl)c2)c1=O` [Compound 17, [5-(3-Chloro-4-fluorophenyl)-3-(5-chloropyridin-3-yl)-6-(6,6-difluoro-2-azaspiro[3.3]-heptan-2-yl)-2,4-dioxo-3,4-dihydropyrimidin-1(2H)-yl]-acetonitrile], for which the EC50 in the assay on SARS-CoV-2 variants (Severe acute respiratory syndrome coronavirus 2, VeroE6/TMPRSS2, read-out: EC50 against various SARS-CoV-2 variants) lay within 2.27 to 12.5 nM. In addition, the EC90 in assay [1] fell in the range of 2.31 to 2.41 nM.
As to `Cn1cnc(Cn2c(=O)[nH]/c(=N\c3cc4cn(C)nc4cc3Cl)n(Cc3cc(F)c(F)cc3F)c2=O)n1` [ensitrelvir], in the assay with SARS-CoV-2 variants, a half-maximal effect (EC50) was put at 259 ± 41 nM.
Turning to `CC(C)(C)[C@H](NC(=O)C(F)(F)F)C(=O)N1C[C@H]2[C@@H]([C@H]1C(=O)N[C@H](C#N)C[C@@H]1CCNC1=O)C2(C)C` [nirmatrelvir, reference compound], the EC50 in assay [2] worked out at 3150 ± 1010 nM.
The same measure, in the same setting: the value for `CCC(CC)COC(=O)[C@H](C)N[P@](=O)(OC[C@H]1O[C@@](C#N)(c2ccc3c(N)ncnn23)[C@H](O)[C@@H]1O)Oc1ccccc1` [remdesivir] was 2010 ± 80 nM.
